pEC50: −log10 of the molar value.
biological target: T1, human RXFP1 (Homo sapiens, UniProt Q9HBX9); experiment: hRXFP1 HEK293 cAMP assay (HTRF); format: cell-based; conditions: HEK293 cells stably expressing human RXFP1, 30 min at room temperature
T1 construct: expressed in transfected cells
T1 sequence (Q9HBX9 1-757): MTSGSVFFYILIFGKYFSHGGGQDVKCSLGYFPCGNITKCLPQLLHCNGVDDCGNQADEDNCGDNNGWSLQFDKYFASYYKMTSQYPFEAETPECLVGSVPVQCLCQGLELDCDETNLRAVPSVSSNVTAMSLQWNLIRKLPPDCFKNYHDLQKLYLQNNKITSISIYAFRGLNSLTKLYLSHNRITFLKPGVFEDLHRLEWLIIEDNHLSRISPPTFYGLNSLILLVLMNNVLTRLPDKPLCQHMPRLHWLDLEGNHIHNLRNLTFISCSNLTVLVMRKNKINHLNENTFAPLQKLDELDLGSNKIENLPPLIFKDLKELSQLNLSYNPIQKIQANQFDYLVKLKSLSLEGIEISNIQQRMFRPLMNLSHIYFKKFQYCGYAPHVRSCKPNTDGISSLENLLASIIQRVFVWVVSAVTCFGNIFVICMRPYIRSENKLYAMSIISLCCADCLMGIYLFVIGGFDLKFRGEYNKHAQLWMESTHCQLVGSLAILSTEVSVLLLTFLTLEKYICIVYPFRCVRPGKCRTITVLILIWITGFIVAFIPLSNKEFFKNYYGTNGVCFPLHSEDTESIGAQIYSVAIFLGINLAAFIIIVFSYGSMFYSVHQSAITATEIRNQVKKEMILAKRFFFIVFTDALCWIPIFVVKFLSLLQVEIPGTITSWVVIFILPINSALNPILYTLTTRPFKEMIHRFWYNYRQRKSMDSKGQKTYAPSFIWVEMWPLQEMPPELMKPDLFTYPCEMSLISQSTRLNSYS
Protocol: RXFP1 Cyclic Adenosine Monophosphate (cAMP) Assays. […] Cells were dissociated and suspended in assay buffer. The assay buffer was HBSS buffer (with calcium and magnesium) containing 20 mM HEPES, 0.05% BSA, and 0.5 mM IBMX. Cells (3000 cells per well, except 1500 cell per well for HEK293 cells stably expressing human RXFP1) were added to 384-well Proxiplates (Perkin-Elmer). Cells were immediately treated with test compounds in DMSO (2% final) at final concentrations in the range of 0.010 nM to 50 μM. Cells were incubated for 30 min at room temperature. The level of intracellular cAMP was determined using the HTRF HiRange cAMP assay reagent kit (Cisbio) according to manufacturer's instructions. Solutions of cryptate conjugated anti-cAMP and d2 fluorophore-labelled cAMP were made in a supplied lysis buffer separately. Upon completion of the reaction, the cells were lysed with equal volume of the d2-cAMP solution and anti-cAMP solution. […] The potency and activity of a compound to […] cAMP production was then determined by fitting to a 4-parametric logistic equation from a plot of cAMP level versus compound concentrations.

| pEC50 | Compound |
| --- | --- |
| 7.18 | COc1ccc(C#CCCO)cc1C(=O)N[C@@H]1C2CCC(/C2=C/C(F)(F)F)[C@@H]1C(=O)Nc1ccc(F)c(C(F)(F)F)c1 (stereo partly drawn) [Example 76, (2S,3R,7Z)-N-[4-fluoro-3-(trifluoromethyl)phe-nyl]-3-[5-(4-hydroxybut-1-yn-1-yl)-2-methoxybenzamido]-7-(2,2,2-trifluoroethylidene)bi-cyclo[2.2.1]heptane-2-carboxamide] |
| 7.13 | COc1ccc(/C=C/C(=O)N[C@H]2C[C@H](O)C2)cc1C(=O)N[C@@H]1C2CCC(/C2=C/C2CC2)[C@@H]1C(=O)Nc1ccc(F)c(C(F)(F)F)c1 (stereo partly drawn) [Example 127, (2S,3R,7Z)-7-(cyclopropylmethyli-dene)-N-[4-fluoro-3-(trifluoromethyl)phe-nyl]-3-{2-methoxy-5-[(1E)-2-{[(1r,3r)-3-hydroxycyclobutyl]carbamoyl}eth-1-en-1-yl]benzamido}bicyclo [2.2.1]heptane-2-carboxamide] |
| 6.76 | COc1ccc(CC[C@H](C)O)cc1C(=O)N[C@@H]1C2CCC(/C2=C/C(F)(F)F)[C@@H]1C(=O)Nc1ccc(F)c(C(F)(F)F)c1 (stereo partly drawn) [Example 92, (2S,3R,7Z)-N-[4-fluoro-3-(trifluoromethyl)phe-nyl]-3-{5-[(3S)-3-hydroxybutyl]-2-methoxybenzamido}-7-(2,2,2-trifluoroethylidene)bi-cyclo[2.2.1]heptane-2-carboxamide] |
| 6.00 | COc1ccc(COC2CCC(OCc3ccccc3)CC2)cc1C(=O)N[C@@H]1C2CCC(/C2=C/C2CC2)[C@@H]1C(=O)Nc1ccc(F)c(C(F)(F)F)c1 (single isomer, unassigned) [Example 23] |
| 5.91 | COCC/C=C1\C2CCC1[C@H](C(=O)Nc1ccc(F)c(C(F)(F)F)c1)C2NC(=O)c1cc(CCC(C)(C)O)ccc1OC (stereo partly drawn) [Example 162, (7Z)-N-[4-fluoro-3-(trifluoromethyl)phe-nyl]-3-[5-(3-hydroxy-3-methylbutyl)-2-methoxybenzamido]-7-(3-methoxypropylidene) bicyclo[2.2.1]heptane-2-carboxamide] |
| 6.66 | COc1ccc(S(=O)(=O)N(CCO)CCO)cc1C(=O)N[C@H]1[C@@H](C(=O)Nc2ccc(F)c(C(F)(F)F)c2)[C@H]2CC[C@@H]1/C2=C\C(F)(F)F [Example 217, (1R,2S,3R,4R,7Z)-3-{5-[bis(2-hydroxyethyl)sulfamoyl]-2-methoxybenzamido}-N-[4-fluoro-3-(trifluoromethyl)phenyl]-7-(2,2,2-trifluoroethylidene) bicyclo[2.2.1] heptane-2-carboxamide] |
| 8.04 | COc1c(F)cc(C(=O)NCC2(S(C)(=O)=O)CC2)cc1C(=O)N[C@H]1[C@@H](C(=O)Nc2ccc(F)c(C(F)(F)F)c2)[C@H]2CC[C@@H]1/C2=C\C(F)(F)F [Example 368, 5-fluoro-N3-[(1R,2R,3S,4R,7Z)-3-{[4-fluoro-3-(trifluoromethyl)phenyl]carbamoyl}-7-(2,2,2-trifluoroethylidene)bicyclo[2.2.1]heptan-2-yl]-N1-[(1-methanesulfonyl-cyclopropyl)methyl]-4-methoxybenzene-1,3-dicarboxamide] |
| 6.18 | COc1ccc(C2CCCC(O)C2)cc1C(=O)N[C@@H]1C2CCC(/C2=C/C(F)(F)F)[C@@H]1C(=O)Nc1ccc(F)c(C(F)(F)F)c1 (single isomer, unassigned) [Example 35] |
| 7.84 | COc1ccc(COC2CCC(O)CC2)cc1C(=O)N[C@H]1[C@@H](C(=O)Nc2ccc(F)c(C(F)(F)F)c2)[C@H]2CC[C@@H]1/C2=C\C1CC1 (stereo partly drawn) [Example 289, (1R,2S,3R,4R,7Z)-7-(cyclopropyl-methylidene)-N-[4-fluoro-3-(trifluoromethyl)phenyl]-3-(5-{[(4-hydroxycyclohexyl)oxy]methyl}-2-methoxybenzamido) bicyclo[2.2.1]heptane-2-carboxamide] |
| 7.08 | COc1ccc([C@H]2C[C@H](O)C2)cc1C(=O)NC1C2CCC(/C2=C/C(F)(F)F)[C@@H]1C(=O)Nc1ccc(F)c(C(F)(F)F)c1 (stereo partly drawn) [Example 145, (2S,3R,7Z)-N-[4-fluoro-3-(trifluoromethyl)phe-nyl]-3-{2-methoxy-5-[(1r,3r)-3-hydroxycyclobutyl]benzamido}-7-(2,2,2-trifluoroethylidene)bi-cyclo[2.2.1]heptane-2-carboxamide] |
| 5.89 | COc1ccc(CC(=O)N2CCC(C)(O)C2)cc1C(=O)NC1C(C(=O)Nc2ccc(F)c(C(F)(F)F)c2)[C@H]2CC[C@@H]1/C2=C\C1CC1 (stereo partly drawn) [Example 357, (1R,4R,7Z)-7-(cyclopropyl-methylidene)-N-[4-fluoro-3-(trifluoromethyl)phenyl]-3-{5-[2-(3-hydroxy-3-methylpyrrolidin-1-yl)-2-oxoethyl]-2-methoxybenzamido} bicyclo[2.2.1]heptane-2-carboxamide] |
| 8.55 | COc1c(F)cc(C(=O)N2CC3(CC(O)C3)C2)cc1C(=O)N[C@H]1[C@@H](C(=O)Nc2ccc(F)c(C(F)(F)F)c2)[C@H]2CC[C@@H]1/C2=C\C1CCCC1 [Example 371, (1R,2S,3R,4R,7Z)-7-(cyclopentyl-methylidene)-N-[4-fluoro-3-(trifluoromethyl)phenyl]-3-(3-fluoro-5-{6-hydroxy-2-azaspiro[3.3]heptane-2-carbonyl}-2-methoxybenzamido) bicyclo[2.2.1]heptane-2-carboxamide] |
| 7.85 | COc1ccc(C(=O)NCC(C)(C)C)cc1C(=O)N[C@H]1[C@@H](C(=O)Nc2ccc(F)c(C(F)(F)F)c2)[C@H]2CC[C@@H]1/C2=C\C1CC1 [Example 238, N3-[(1R,2R,3S,4R,7Z)-7-(cyclopropyl-methylidene)-3-{[4-fluoro-3-(trifluoromethyl)phenyl]carbamoyl}bicyclo[2.2.1]heptan-2-yl]-N1-(2,2-dimethylpropyl)-4-methoxybenzene-1,3-dicarboxamide] |
| 5.33 | COc1ccc(COC2CCOC2)cc1C(=O)N[C@@H]1C2CCC(/C2=C/C(F)(F)F)[C@@H]1C(=O)Nc1ccc(F)c(C(F)(F)F)c1 (stereo partly drawn) [Example 27, (2S,3R,7Z)-N-[4-fluoro-3-(trifluoromethyl)phe-nyl]-3-{2-methoxy-5-[(oxolan-3-yloxy)methyl]benza-mido}-7-(2,2,2-trifluoroethylidene)bi-cyclo[2.2.1]heptane-2-carboxamide] |
| 5.59 | COc1ccc(C23CCC(C(C)(C)O)(CC2)CC3)cc1C(=O)N[C@H]1[C@@H](C(=O)Nc2ccc(F)c(C(F)(F)F)c2)[C@H]2CC[C@@H]1/C2=C\C1CC1 (single isomer, unassigned) [Example 276] |
| 7.44 | COc1ccc(COCC2CC2(F)F)cc1C(=O)N[C@@H]1C2CCC(/C2=C/C2CC2)[C@@H]1C(=O)Nc1ccc(F)c(C(F)(F)F)c1 (stereo partly drawn) [Example 15, (2S,3R,7Z)-7-(cyclopropylmethyli-dene)-3-(5-{[(2,2-difluorocyclopropyl)methoxy]methyl}-2-methoxybenzamido)-N-[4-fluoro-3-(trifluoromethyl)phe-nyl]bicyclo[2.2.1]hept-ane-2-carboxamide] |
| 6.40 | COc1ccc(C2CCC(O)CC2)cc1C(=O)NC1C2CCC(/C2=C/C(F)(F)F)[C@@H]1C(=O)Nc1ccc(F)c(C(F)(F)F)c1 (single isomer, unassigned) [Example 53] |
| 5.82 | COc1ccc(C(F)(F)F)cc1C(=O)N[C@@H]1C2CCC(C2=C(C)C)[C@@H]1C(=O)Nc1ccc(F)c(C(F)(F)F)c1 (stereo partly drawn) [Example 359] |
| 5.59 | COc1ccc(S(C)(=O)=O)cc1C(=O)N[C@@H]1C2CCC(C2=C(C)C)[C@@H]1C(=O)Nc1ccc(F)c(C(F)(F)F)c1 (stereo partly drawn) [Example 208, (2S,3R)-N-[4-fluoro-3-(trifluoromethyl)phenyl]-3-(5-methanesulfonyl-2-methoxybenzamido)-7-(propan-2-ylidene)bicyclo[2.2.1] heptane-2-carboxamide] |
| 7.30 | COc1ccc(CC[C@@H](C)O)cc1C(=O)N[C@@H]1C2CCC(/C2=C/C2CC2)[C@@H]1C(=O)Nc1ccc(F)c(C(F)(F)F)c1 (stereo partly drawn) [Example 95, (2S,3R,7Z)-7-(cyclopropylmethyli-dene)-N-[4-fluoro-3-(trifluoromethyl)phe-nyl]-3-{5-[(3R)-3-hydroxybutyl]-2-methoxybenzamido} bicyclo[2.2.1]heptane-2-carboxamide] |

| Compound | pEC50 |
| --- | --- |
| (1R,4R,7Z)-7-(2- cyclobutylethylidene)- N-[4-fluoro-3- (trifluoromethyl) phenyl]-3-[5-(3- hydroxypropyl)-2- methoxybenzamido] bicyclo[2.2.1]heptane- 2-carboxamide [Example 261] | 6.83 |
